Measured values taken from patent US12503438B2, “Compounds for the treatment of kinase-dependent disorders” (Exelixis, Inc., priority 2019, dated 2025).

Key:
[1] = target: T1, Mer (Homo sapiens, UniProt Q12866); test: Mer autophosphorylation ELISA in transient transfected 293A cells; assay type: cell-based; details: cellular activity; MERTK-transfected 293A cells, phospho-Mer ELISA
T1 construct: host or cells: 293A cells (Thermo Fisher #R70507)
T1 sequence (Q12866 21-999): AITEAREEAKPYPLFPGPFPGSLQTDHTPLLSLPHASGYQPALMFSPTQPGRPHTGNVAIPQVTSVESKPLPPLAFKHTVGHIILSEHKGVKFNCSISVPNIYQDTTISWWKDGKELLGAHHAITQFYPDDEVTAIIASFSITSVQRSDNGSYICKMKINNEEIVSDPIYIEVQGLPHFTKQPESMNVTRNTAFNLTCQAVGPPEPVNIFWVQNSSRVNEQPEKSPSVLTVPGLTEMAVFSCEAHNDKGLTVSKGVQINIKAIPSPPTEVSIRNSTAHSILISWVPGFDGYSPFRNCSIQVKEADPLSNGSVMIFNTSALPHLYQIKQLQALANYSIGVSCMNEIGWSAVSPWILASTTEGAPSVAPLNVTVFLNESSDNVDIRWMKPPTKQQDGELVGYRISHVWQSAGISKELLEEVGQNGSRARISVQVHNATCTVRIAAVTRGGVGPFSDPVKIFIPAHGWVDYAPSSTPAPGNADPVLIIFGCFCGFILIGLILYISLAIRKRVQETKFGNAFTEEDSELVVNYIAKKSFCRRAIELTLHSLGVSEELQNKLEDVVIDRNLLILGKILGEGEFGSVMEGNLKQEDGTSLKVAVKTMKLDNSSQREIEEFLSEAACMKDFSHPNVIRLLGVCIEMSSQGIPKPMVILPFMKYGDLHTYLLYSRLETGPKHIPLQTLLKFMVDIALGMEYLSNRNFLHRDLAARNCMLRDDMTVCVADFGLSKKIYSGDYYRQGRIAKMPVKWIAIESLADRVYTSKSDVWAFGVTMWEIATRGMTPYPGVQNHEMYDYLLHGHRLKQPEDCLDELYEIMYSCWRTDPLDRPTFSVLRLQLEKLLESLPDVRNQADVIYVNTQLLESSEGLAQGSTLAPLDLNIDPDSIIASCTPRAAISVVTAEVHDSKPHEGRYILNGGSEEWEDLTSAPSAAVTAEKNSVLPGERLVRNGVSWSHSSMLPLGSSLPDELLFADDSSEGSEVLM
Experimental: 293A cells (Thermo Fisher #R70507) were seeded at 1.5×10^6 cells/well onto 100 mm dish (Greiner #664169), in DMEM (Thermo Fisher #11995-040) containing 10% FBS (Thermo Fisher #26140-079), 1% MEM NEAA (Thermo Fisher #11140-050), 1% GlutaMax (Thermo Fisher #35050-061), and 1% Penicillin Streptomycin (Thermo Fisher #15140-122). 293A cells were incubated at 37° C., 5% CO2 for 24 h and then transfected with 6 μg MERTK DNA (Genecopoeia #EX-Z8208-M02) using TransIT LT1 transfection reagent (Mirus-Bio #MIR2305). After 24 h incubation, the transfected 293A cells were seeded at 1×10^5 cells/well onto 96-well plates (Corning #3904) in DMEM growth medium overnight. Test compounds were serially diluted to produce an 8-point dose curve in fresh serum-free medium to a final concentration of 0.3% DMSO (vehicle) and added to the cells and incubated for 1 h. Cells were then immediately lysed with 150 μL of cold 1× lysis buffer [20 mM Tris, 137 mM sodium chloride, 2 mM EDTA, 10% glycerol, 1% NP-40 alternative, 1 mM activated sodium orthovanadate, 1 mM PefaBloc SC (Sigma-Aldrich #11429868001), protease/phosphatase inhibitor tablet (Thermo Fisher #A32959)]. Lysates were clarified by centrifugation and 50 μL/well added into the human phospho-Mer DuoSet IC ELISA (R&D Systems #DYC2579-2). Assay was performed according to manufacturer's instructions and sample phospho-Mer concentrations were extrapolated using human phospho-Mer control (R&D Systems #841793) as a standard. Positive control wells (100% activity) contained DMSO-treated cell lysates. Negative control wells (0% activity) contained reference inhibitor-treated cell lysates. IC50 values were calculated by nonlinear regression analysis using a 4-parameter logistic curve fit in ActivityBase XE (IDBS).

[2] = target: T2, Human Mer (Homo sapiens, UniProt Q12866); test: Human Mer kinase assay (33P-phosphoryl transfer radiometric, KinaseProfiler); details: biochemical activity; 10 μM ATP
T2 construct: Human Mer (residues R557-E882 with H628Q and R794A, 0.7 nM); purchased Eurofins Pharma Discovery Services UK Limited (KinaseProfiler service)
T2 sequence (Q12866 557-882 limits assumed): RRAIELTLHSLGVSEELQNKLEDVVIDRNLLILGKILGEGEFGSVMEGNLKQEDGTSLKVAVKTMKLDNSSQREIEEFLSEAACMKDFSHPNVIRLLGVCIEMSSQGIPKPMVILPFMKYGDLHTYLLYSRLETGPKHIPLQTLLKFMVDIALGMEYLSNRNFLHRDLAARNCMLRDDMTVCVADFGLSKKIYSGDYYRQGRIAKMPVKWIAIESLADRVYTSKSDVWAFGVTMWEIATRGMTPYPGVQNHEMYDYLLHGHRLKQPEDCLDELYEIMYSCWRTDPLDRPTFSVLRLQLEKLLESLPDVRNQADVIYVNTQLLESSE
Experimental: Kinase activity and compound inhibition were investigated using the ^33P-Phosphoryl transfer radiometric kinase assay, performed using the KinaseProfiler™ service of Eurofins Pharma Discovery Services UK Limited. Dose-response experiments were performed using nine compound concentrations in a 96-well microtiter plate. For each assay, all compounds were prepared to a 50× final assay concentration (50 μM) in 100% DMSO, then diluted in a half-log series, with the final top concentration at 1 μM. This working stock of the compound was added to the assay well as the first component in the reaction, followed by the remaining components as detailed in the following assay protocols below. The positive control wells (100% kinase activity) contain all components of the reaction including 2% DMSO (control for solvent effects), except the compound of interest. Blank wells contain all components of the reaction, with the reference inhibitor, staurosporine. This reference compound was used to abolish kinase activity and generated the 0% kinase activity base-line. IC50 values were calculated by nonlinear regression analysis using the sigmoidal dose-response (variable slope) curve fit on XLFit version 5.3 (ID Business Solutions).
Human Mer (residues R557-E882 with H628Q and R794A, 0.7 nM) was incubated with 8 mM MOPS pH 7.0, 0.2 mM EDTA, 30 mM NaCl, 250 μM GGMEDIYFEFMGGKKK, 10 mM magnesium acetate and 10 μM [y-^33P-ATP]. The reaction was initiated by the addition of the Mg/ATP mix. After incubation for 40 minutes at room temperature, the reaction was stopped by the addition of phosphoric acid to a concentration of 0.5%. A reaction aliquot of 10 μL was then spotted onto a P30 filtermat and washed four times for 4 minutes in 0.425% phosphoric acid and once in methanol prior to drying and scintillation counting. Incorporated ^33P was measured using the Wallac Microbeta scintillation counter (Perkin Elmer).

| IC50 [1] [nM] | IC50 [2] [nM] | Compound |
| --- | --- | --- |
| 10 to 100 | ≤ 10 | Cn1ccc(-c2ccc3c(Oc4ccc(NC(=O)C5(C(=O)Nc6ccc(F)cc6)CC5)cc4)ccnc3c2)n1 [Compound 17, 1-N′-(4-Fluorophenyl)-1-N-[4-[7-(1-methylpyrazol-3-yl)quinolin-4-yl]oxyphenyl]cyclopropane-1,1-dicarboxamide] |
| – | 10 to 100 | Cc1noc(C)c1-c1ccc2c(Oc3ccc(NC(=O)C4(C(=O)Nc5ccc(F)cc5)CC4)cc3)ccnc2c1 [Compound 53, 1-N-[4-[7-(3,5-Dimethyl-1,2-oxazol-4-yl)quinolin-4-yl]oxyphenyl]-1-N′-(4-fluorophenyl)cyclopropane-1,1-dicarboxamide] |
| – | 100 to 1000 | C[Si](C)(C)C#Cc1ccc2c(Oc3ccc(NC(=O)C4(C(=O)Nc5ccc(F)cc5)CC4)cc3)ccnc2c1 [Compound 63, 1-N′-(4-Fluorophenyl)-1-N-[4-[7-(2-trimethylsilylethynyl)quinolin-4-yl]oxyphenyl]cyclopropane-1,1-dicarboxamide] |
| 10 to 100 | – | Cc1cc2c(Oc3cc(Cl)c(NC(=O)C4(C(=O)Nc5ccc(F)cc5)CC4)cc3F)ccnc2cc1-c1cnn(C)c1 [Compound 112, 1-N′-[2-Chloro-5-fluoro-4-[6-methyl-7-(1-methylpyrazol-4-yl)quinolin-4-yl]oxyphenyl]-1-N-(4-fluorophenyl)cyclopropane-1,1-dicarboxamide] |
| – | 10 to 100 | C#Cc1ccc2c(Oc3ccc(NC(=O)C4(C(=O)Nc5ccc(F)cc5)CC4)cc3)ccnc2c1 [Compound 64, 1-N-[4-(7-Ethynylquinolin-4-yl)oxyphenyl]-1-N′-(4-fluorophenyl)cyclopropane-1,1-dicarboxamide] |
| 10 to 100 | – | O=C(Nc1ccc(F)cc1)C1(C(=O)Nc2cc(F)c(Oc3ccnc4cc(-c5cccnc5)ccc34)cc2F)CC1 [Compound 115, 1-N′-[2,5-Difluoro-4-(7-pyridin-3-ylquinolin-4-yl)oxyphenyl]-1-N-(4-fluorophenyl)cyclopropane-1,1-dicarboxamide] |
| 10 to 100 | – | COc1cncc(-c2ccc3c(Oc4ccc(NC(=O)C5(C(=O)Nc6ccc(F)cc6)CC5)cc4)ccnc3c2)c1 [Compound 47, 1-N′-(4-Fluorophenyl)-1-N-[4-[7-(5-methoxypyridin-3-yl)quinolin-4-yl]oxyphenyl]cyclopropane-1,1-dicarboxamide] |
| – | 100 to 1000 | O=C(Nc1ccc(F)cc1)C1(C(=O)Nc2ccc(Oc3ccnc4cc(-c5cnn[nH]5)ccc34)cc2)CC1 [Compound 65, 1-N′-(4-Fluorophenyl)-1-N-[4-[7-(1H-triazol-5-yl)quinolin-4-yl]oxyphenyl]cyclopropane-1,1-dicarboxamide] |
| – | 100 to 1000 | CN(C(=O)C1(C(=O)Nc2ccc(Oc3ccnc4cc(-c5cnn(C)c5)ccc34)cc2)CC1)c1ccc(F)cc1 [Compound 82A, 1-N′-(4-Fluorophenyl)-1-N′-methyl-1-N-[4-[7-(1-methylpyrazol-4-yl)quinolin-4-yl]oxyphenyl]cyclopropane-1,1-dicarboxamide] |
| 10 to 100 | – | O=C(Nc1ccc(F)cc1)C1(C(=O)Nc2ccc(Oc3ccnc4cc(-c5cncs5)ccc34)cc2)CC1 [Compound 116, 1-N′-(4-Fluorophenyl)-1-N-[4-[7-(1,3-thiazol-5-yl)quinolin-4-yl]oxyphenyl]cyclopropane-1,1-dicarboxamide] |
| 10 to 100 | – | O=C(Nc1ccc(F)cc1)C1(C(=O)Nc2ccc(Oc3ccnc4cc(-c5cccnc5)ccc34)c(F)c2)CC1 [Compound 113, 1-N-(4-Fluorophenyl)-1-N′-[3-fluoro-4-(7-pyridin-3-ylquinolin-4-yl)oxyphenyl]cyclopropane-1,1-dicarboxamide] |
| 10 to 100 | – | N#Cc1cncc(-c2ccc3c(Oc4ccc(NC(=O)C5(C(=O)Nc6ccc(F)cc6)CC5)cc4)ccnc3c2)c1 [Compound 40, 1-N-[4-[7-(5-Cyanopyridin-3-yl)quinolin-4-yl]oxyphenyl]-1-N′-(4-fluorophenyl)cyclopropane-1,1-dicarboxamide] |
| 10 to 100 | – | Cc1cc2c(Oc3ccc(NC(=O)C4(C(=O)Nc5ccc(F)cc5)CC4)cc3F)ccnc2cc1-c1ncc[nH]1 [Compound 122, 1-N′-[3-Fluoro-4-[7-(1H-imidazol-2-yl)-6-methylquinolin-4-yl]oxyphenyl]-1-N-(4-fluorophenyl)cyclopropane-1,1-dicarboxamide] |
| 10 to 100 | – | Cc1cc2c(Oc3cc(F)c(NC(=O)C4(C(=O)Nc5ccc(F)cc5)CC4)cc3F)ccnc2cc1-c1ncc[nH]1 [Compound 121, 1-N′-[2,5-Difluoro-4-[7-(1H-imidazol-2-yl)-6-methylquinolin-4-yl]oxyphenyl]-1-N-(4-fluorophenyl)cyclopropane-1,1-dicarboxamide] |
| 10 to 100 | – | N#Cc1ccc(-c2ccc3c(Oc4ccc(NC(=O)C5(C(=O)Nc6ccc(F)cc6)CC5)cc4)ccnc3c2)cn1 [Compound 42, 1-N-[4-[7-(6-Cyanopyridin-3-yl)quinolin-4-yl]oxyphenyl]-1-N′-(4-fluorophenyl)cyclopropane-1,1-dicarboxamide] |
| 10 to 100 | – | O=C(Nc1ccc(F)cc1)C1(C(=O)Nc2ccc(Oc3ccnc4cc(-c5ccc(F)nc5)ccc34)cc2)CC1 [Compound 41, 1-N′-(4-Fluorophenyl)-1-N-[4-[7-(6-fluoropyridin-3-yl)quinolin-4-yl]oxyphenyl]cyclopropane-1,1-dicarboxamide] |
| 10 to 100 | – | CN1CCN(c2cc(-c3ccc4c(Oc5ccc(NC(=O)C6(C(=O)Nc7ccc(F)cc7)CC6)cc5)ccnc4c3)ccn2)CC1 [Compound 111, 1-N′-(4-Fluorophenyl)-1-N-[4-[7-[2-(4-methylpiperazin-1-yl)pyridin-4-yl]quinolin-4-yl]oxyphenyl]cyclopropane-1,1-dicarboxamide] |
